Measurements taken from patent publication US8399490B2, “Insecticides” (Syngenta Crop Protection LLC, priority 2007, dated 2013).
Like-named read-outs stand apart in the source and are kept apart here.

Tests used:
[1] = system: Spodoptera littoralis (Egyptian cotton leafworm); assay: Example B1: Activity against Spodoptera littoralis (larvicide, feeding/residual contact activity, preventive), cotton leaf discs; format: in vivo; settings: foliar, 72 h, L1 larvae on cotton leaf discs, 3 days after treatment
Description: Activity Against Spodoptera littoralis (Egyptian Cotton Leafworm)
(Larvicide, Feeding/Residual Contact Activity, Preventive)
The samples are checked for mortality, repellent effect, feeding behaviour, and growth regulation 3 days after treatment. In this test, compounds listed in Table P above show good activity. In particular compounds P.1, P.2, P.3, P.4, P.5, P.6, P.7, P.8, P.9, P.10, P.11, P.12, P.13, P.14, P.15, P.16, P.17, P.18, P.19, P.20, P.21, P.22, P.23, P.24, P.25, P.26, P.27, P.28, P.29, P.30, P.31, P.32, P.33, P.34, P.35, P.36, P.37, P.38, P.39, P.40, P.41, P.42, P.43, P.44, P.46, P.50, P.51, P.52, P.55, P.56, P.57, P.58, P.59, P.60, P61, P.66, P.67, P.68, P.69, P.70, P.71, P.72, P.73, P.74, P.75, P.76, P.77, P.78, P.83, P.84, P.87 and P.88 show an activity of over 80% at a concentration of 400 ppm.

[2] = system: Myzus persicae (green peach aphid); assay: Example B6: Activity against Myzus persicae (mixed population, systemic/feeding activity, curative), pea seedling roots in test solution; settings: 144 h, read-out: activity
[3] = system: Myzus persicae (green peach aphid); settings: foliar, 144 h, read-out: activity
[4] = system: Plutella xylostella (diamond back moth); assay: Example B3: Plutella xylostella (larvicide, feeding/residual contact activity, preventive), artificial diet MTP; format: in vivo; settings: 120 h, L2 larvae on artificial diet, 5 days incubation
Description: (§1) Plutella xylostella (Diamond Back Moth) (Larvicide, Feeding/Residual Contact Activity, Preventive) 24-well microtiter plate (MTP) with artificial diet is treated with test solutions by pipetting. After drying, the MTP's are infested with larvae (L2) (10-15 per well). After an incubation period of 5 days, samples are checked for larval mortality, antifeedant and growth regulation.

[5] = system: Heliothis virescens (tobacco budworm); assay: Example B2: Activity against Heliothis virescens (ovo-larvicide, feeding/contact activity, curative), eggs on artificial diet; format: in vivo; settings: 96 h, 4 days incubation
Description: Activity Against Heliothis virescens (Tobacco Budworm) (Ovo-Larvicide, Feeding/Contact Activity, Curative) Eggs (0-24 h old) are placed in 24-well microtiter plate on artificial diet and treated with test solutions by pipetting. After an incubation period of 4 days, samples are checked for egg mortality, larval mortality, and growth regulation.

[6] = system: Diabrotica balteata (corn root worm); assay: Example B4: Diabrotica balteata (larvicide, feeding/residual contact activity, preventive), artificial diet MTP; format: in vivo; settings: 120 h, L2 larvae on artificial diet, 5 days incubation
Description: as §1, with “Diabrotica balteata (Corn Root Worm)” for “Plutella xylostella (Diamond Back Moth)”, “(6-10” for “(10-15”

Measured: pest or weed control at 400 ppm

Cc1cc2c(c(C(=O)NC(C)C)c1NC(=O)c1cc(Cl)nn1-c1ncccc1Cl)OC(F)(F)O2 [P.30]
> 80%: all assays above

COc1cc(C(=O)Nc2c(Cl)cc3c(c2C(=O)NC(C)C)C(O)CC3)n(-c2ncccc2Cl)n1 (stereo not drawn) [P.66]
> 80%: [1] | [2] | [4] | [5]

Cc1cc2c(c(C(=O)NC(C)C)c1NC(=O)c1cc(Br)nn1-c1ncccc1Cl)OC(F)(F)O2 [P.14]
not listed: [6]
> 80%: all other assays above

CSCC(C)(C)NC(=O)c1c(NC(=O)c2cc(Br)nn2-c2ncccc2Cl)c(C)cc2c1OC(F)(F)O2 [P.27]
> 80%: all assays above

CC(C)NC(=O)c1c(NC(=O)c2cc(Br)nn2-c2ncccc2Cl)c(Cl)cc2c1OC(F)(F)O2 [P.19]
> 80%: all assays above

COc1cc(C(=O)Nc2c(C)cc3c(c2C(=O)NC(C)C)OCO3)n(-c2ncccc2Cl)n1 [P.77]
> 80%: [1] | [2] | [4] | [5]

CC(C)NC(=O)c1c(NC(=O)c2cc(Cl)nn2-c2ncccc2Cl)c(Cl)cc2c1OC(F)(F)O2 [P.23]
> 80%: all assays above

CCNC(=O)c1c(NC(=O)c2cc(OC)nn2-c2ncccc2Cl)c(C)cc2c1OCO2 [P.76]
> 80%: [1] | [2] | [4] | [5]

CNC(=O)c1c(NC(=O)c2cc(Cl)nn2-c2ncccc2Cl)c(Cl)cc2c1OC(F)(F)O2 [P.22]
> 80%: all assays above

CNC(=O)c1c(NC(=O)c2cc(C(F)F)nn2-c2ncccc2Cl)c(Br)cc2c1OC(C)C2 (stereo not drawn) [P.83]
not listed: [2]
> 80%: all other assays above

O=C(NC1(C2CC2)CC1)c1c(NC(=O)c2cc(Br)nn2-c2ncccc2Cl)c(Cl)cc2c1OC(F)(F)O2 [P.21]
not listed: [2]
> 80%: all other assays above

CCNC(=O)c1c(NC(=O)c2cc(C(F)(F)F)nn2-c2ncccc2Cl)c(C)cc2c1OCO2 [P.68]
> 80%: [1] | [4] | [5] | [6]

Cc1cc2c(c(C(=O)NC3(C4CC4)CC3)c1NC(=O)c1cc(Br)nn1-c1ncccc1Cl)OCO2 [P.78]
> 80%: [1] | [4] | [5] | [6]

CC(C)NC(=O)c1c(NC(=O)c2cc(C(F)(F)F)nn2-c2ncccc2Cl)c(Cl)cc2c1OCO2 [P.1]
> 80%: [1] | [4] | [5] | [6]

CC(C)NC(=O)c1c(NC(=O)c2cc(Cl)nn2-c2ncccc2Cl)c(Cl)cc2c1OCO2 [P.3]
> 80%: [1] | [4] | [5] | [6]

CNC(=O)c1c(NC(=O)c2cc(Cl)nn2-c2ncccc2Cl)c(C)cc2c1OC(F)(F)O2 [P.29]
not listed: [3]
> 80%: all other assays above

O=C(NC1(C2CC2)CC1)c1c(NC(=O)c2cc(Cl)nn2-c2ncccc2Cl)c(Cl)cc2c1OCO2 [P.6]
> 80%: [1] | [4] | [5] | [6]

CNC(=O)c1c(NC(=O)c2cc(Br)nn2-c2ncccc2Cl)c(Br)cc2c1S(=O)(=O)C(C)C2 (stereo not drawn) [P.88]
> 80%: [1] | [3] | [4] | [5]

CC(C)NC(=O)c1c(NC(=O)c2cc(C(F)F)nn2-c2ncccc2Cl)c(Cl)cc2c1OCO2 [P.4]
> 80%: [1] | [4] | [5] | [6]

CCNC(=O)c1c(NC(=O)c2cc(C(F)F)nn2-c2ncccc2Cl)c(Cl)cc2c1OCO2 [P.5]
> 80%: [1] | [3] | [4] | [5]

COc1cc(C(=O)Nc2c(C)cc3c(c2C(=O)NC(C)C)OC(F)(F)O3)n(-c2ncccc2Cl)n1 [P.36]
> 80%: [1] | [4] | [5] | [6]

Cc1cc2c(c(C(=O)NC3(C4CC4)CC3)c1NC(=O)c1cc(C(F)F)nn1-c1ncccc1Cl)OCO2 [P.71]
> 80%: [1] | [3] | [4] | [5]

COc1cc(C(=O)Nc2c(Cl)cc3c(c2C(=O)NC(C)C)OCO3)n(-c2ncccc2Cl)n1 [P.12]
> 80%: [1] | [3] | [4] | [5]

O=C(NC1(C2CC2)CC1)c1c(NC(=O)c2cc(C(F)(F)F)nn2-c2ncccc2Cl)c(Cl)cc2c1OC(F)(F)O2 [P.17]
> 80%: [1] | [4] | [5] | [6]

CNC(=O)c1c(NC(=O)c2cc(C(F)(F)F)nn2-c2ncccc2Cl)c(C)cc2c1OC(F)(F)O2 [P.43]
> 80%: [1] | [4] | [5] | [6]

CNC(=O)c1c(NC(=O)c2cc(Br)nn2-c2ncccc2Cl)c(Br)cc2c1OC(F)(F)O2 [P.41]
> 80%: [1] | [4] | [5] | [6]

Cc1cc2c(c(C(=O)NC(C)(C)C)c1NC(=O)c1cc(C(F)F)nn1-c1ncccc1Cl)OCO2 [P.73]
> 80%: [1] | [4] | [5] | [6]

O=C(NC1(C2CC2)CC1)c1c(NC(=O)c2cc(Cl)nn2-c2ncccc2Cl)c(Cl)cc2c1OC(F)(F)O2 [P.25]
> 80%: [1] | [4] | [5] | [6]

Cc1cc2c(c(C(=O)NC(C)C)c1NC(=O)c1cc(C(F)F)nn1-c1ncccc1Cl)OCO2 [P.74]
not listed: [3]
> 80%: all other assays above

CCNC(=O)c1c(NC(=O)c2cc(C(F)(F)F)nn2-c2ncccc2Cl)c(Cl)cc2c1OCO2 [P.2]
> 80%: [1] | [4] | [5] | [6]
